Calls of active or inactive are those of the source. No cut-off for these calls is given here.
Key:
Salmonella typhimurium [1] = experiment: Antibiofilm activity in Salmonella Typhimurium ATCC 14028 assessed as inhibition of biofilm formation at 25 degC after 24 hrs; assay type: functional, organism-based, Salmonella enterica subsp. enterica serovar Typhimurium; conditions: Salmonella enterica, ATCC 14028, 24 h
Salmonella typhimurium [2] = experiment: Antimicrobial activity against Salmonella Typhimurium ATCC 14028 assessed as inhibition of planktonic growth at 250 uM at 37 degC after 24 hrs; assay type: functional, organism-based; conditions: Salmonella enterica subsp. enterica serovar Typhimurium
Salmonella typhimurium [3] = experiment: Antimicrobial activity against Salmonella Typhimurium ATCC 14028 assessed as inhibition of planktonic growth at 40 uM at 25 degC after 24 hrs; assay type: functional, organism-based; conditions: Salmonella enterica subsp. enterica serovar Typhimurium
Pseudomonas aeruginosa [4] = experiment: Antibiofilm activity in Pseudomonas aeruginosa assessed as inhibition of biofilm formation at 25 degC after 24 hrs; assay type: functional, organism-based
Salmonella typhimurium [5] = experiment: Antimicrobial activity against Salmonella Typhimurium ATCC 14028 assessed as inhibition of planktonic growth at 400 uM at 37 degC after 24 hrs; assay type: functional, organism-based; conditions: Salmonella enterica subsp. enterica serovar Typhimurium
Salmonella typhimurium [6] = experiment: Antimicrobial activity against Salmonella Typhimurium ATCC 14028 assessed as inhibition of planktonic growth at 150 uM at 37 degC after 24 hrs; assay type: functional, organism-based; conditions: Salmonella enterica subsp. enterica serovar Typhimurium
Salmonella typhimurium [7] = experiment: Antibiofilm activity in Salmonella Typhimurium ATCC 14028 assessed as inhibition of biofilm formation at 37 degC after 24 hrs; assay type: functional, organism-based, Salmonella enterica subsp. enterica serovar Typhimurium; conditions: Salmonella enterica, ATCC 14028, 24 h
Salmonella typhimurium [8] = experiment: Antimicrobial activity against Salmonella Typhimurium ATCC 14028 assessed as inhibition of planktonic growth at 100 uM at 37 degC after 24 hrs; assay type: functional, organism-based; conditions: Salmonella enterica subsp. enterica serovar Typhimurium
Pseudomonas aeruginosa [9] = experiment: Antimicrobial activity against Pseudomonas aeruginosa assessed as inhibition of planktonic growth at 20 uM at 37 degC after 24 hrs; assay type: functional, organism-based
Salmonella typhimurium [10] = experiment: Antimicrobial activity against Salmonella Typhimurium ATCC 14028 assessed as inhibition of planktonic growth at 400 uM at 25 degC after 24 hrs; assay type: functional, organism-based; conditions: Salmonella enterica subsp. enterica serovar Typhimurium
Pseudomonas aeruginosa [11] = experiment: Antibiofilm activity in Pseudomonas aeruginosa assessed as inhibition of biofilm formation at 37 degC after 24 hrs; assay type: functional, organism-based
Salmonella typhimurium [12] = experiment: Antimicrobial activity against Salmonella Typhimurium ATCC 14028 assessed as inhibition of planktonic growth at 4 uM at 25 degC after 24 hrs; assay type: functional, organism-based; conditions: Salmonella enterica subsp. enterica serovar Typhimurium
Pseudomonas aeruginosa [13] = experiment: Antimicrobial activity against Pseudomonas aeruginosa assessed as inhibition of planktonic growth at 100 uM at 25 degC after 24 hrs; assay type: functional, organism-based
Pseudomonas aeruginosa [14] = experiment: Antimicrobial activity against Pseudomonas aeruginosa assessed as inhibition of planktonic growth at 100 uM at 37 degC after 24 hrs; assay type: functional, organism-based
Pseudomonas aeruginosa [15] = experiment: Antimicrobial activity against Pseudomonas aeruginosa assessed as inhibition of planktonic growth at 40 uM at 37 degC after 24 hrs; assay type: functional, organism-based
Salmonella typhimurium [16] = experiment: Antimicrobial activity against Salmonella Typhimurium ATCC 14028 assessed as inhibition of planktonic growth at 150 uM at 25 degC after 24 hrs; assay type: functional, organism-based; conditions: Salmonella enterica subsp. enterica serovar Typhimurium
Pseudomonas aeruginosa [17] = experiment: Antimicrobial activity against Pseudomonas aeruginosa assessed as inhibition of planktonic growth at 40 uM at 25 degC after 24 hrs; assay type: functional, organism-based
Salmonella typhimurium [18] = experiment: Antimicrobial activity against Salmonella Typhimurium ATCC 14028 assessed as inhibition of planktonic growth at 25 uM at 37 degC after 24 hrs; assay type: functional, organism-based; conditions: Salmonella enterica subsp. enterica serovar Typhimurium
Pseudomonas aeruginosa [19] = experiment: Antimicrobial activity against Pseudomonas aeruginosa assessed as inhibition of planktonic growth at 5 uM at 25 degC after 24 hrs; assay type: functional, organism-based
Pseudomonas aeruginosa [20] = experiment: Antimicrobial activity against Pseudomonas aeruginosa assessed as inhibition of planktonic growth at 10 uM at 25 degC after 24 hrs; assay type: functional, organism-based
Salmonella typhimurium [21] = experiment: Antimicrobial activity against Salmonella Typhimurium ATCC 14028 assessed as inhibition of planktonic growth at 50 uM at 37 degC after 24 hrs; assay type: functional, organism-based; conditions: Salmonella enterica subsp. enterica serovar Typhimurium
Salmonella typhimurium [22] = experiment: Antimicrobial activity against Salmonella Typhimurium ATCC 14028 assessed as inhibition of planktonic growth at 10 uM at 25 degC after 24 hrs; assay type: functional, organism-based; conditions: Salmonella enterica subsp. enterica serovar Typhimurium
Pseudomonas aeruginosa [23] = experiment: Antimicrobial activity against Pseudomonas aeruginosa assessed as inhibition of planktonic growth at 800 uM at 37 degC after 24 hrs; assay type: functional, organism-based
Pseudomonas aeruginosa [24] = experiment: Antimicrobial activity against Pseudomonas aeruginosa assessed as inhibition of planktonic growth at 400 uM at 37 degC after 24 hrs; assay type: functional, organism-based
Salmonella typhimurium [25] = experiment: Antimicrobial activity against Salmonella Typhimurium ATCC 14028 assessed as inhibition of planktonic growth at 20 uM at 25 degC after 24 hrs; assay type: functional, organism-based; conditions: Salmonella enterica subsp. enterica serovar Typhimurium
Salmonella typhimurium [26] = experiment: Antimicrobial activity against Salmonella Typhimurium ATCC 14028 assessed as inhibition of planktonic growth at 25 uM at 25 degC after 24 hrs; assay type: functional, organism-based; conditions: Salmonella enterica subsp. enterica serovar Typhimurium
Pseudomonas aeruginosa [27] = experiment: Antimicrobial activity against Pseudomonas aeruginosa assessed as inhibition of planktonic growth at 50 uM at 25 degC after 24 hrs; assay type: functional, organism-based

IC50 (Salmonella typhimurium [1]) [µM] | IC50 (Pseudomonas aeruginosa [4]) [µM] | IC50 (Salmonella typhimurium [7]) [µM] | IC50 (Pseudomonas aeruginosa [11]) [µM] | SMILES | inhibition (Salmonella typhimurium [3]) | inhibition (Salmonella typhimurium [5]) | inhibition (Salmonella typhimurium [6]) | inhibition (Salmonella typhimurium [8]) | inhibition (Pseudomonas aeruginosa [9]) | inhibition (Salmonella typhimurium [10]) | inhibition (Salmonella typhimurium [12]) | inhibition (Pseudomonas aeruginosa [13]) | inhibition (Pseudomonas aeruginosa [14]) | inhibition (Pseudomonas aeruginosa [15]) | inhibition (Pseudomonas aeruginosa [17]) | inhibition (Pseudomonas aeruginosa [20]) | inhibition (Salmonella typhimurium [22]) | other results
130 | 72.6 | 146 | 22.7 | Nc1ncc(-c2ccccc2)[nH]1 | inactive | inactive | inactive | inactive | inactive | Active | inactive | inactive | inactive | inactive | – | – | – | inhibition (Salmonella typhimurium [2]): inactive; inhibition (Salmonella typhimurium [16]): inactive
47.9 | 3.2 | 54.3 | 51.3 | Nc1ncc(-c2ccc(Br)cc2)[nH]1 | inactive | – | inactive | inactive | inactive | Active | inactive | – | Active | inactive | Active | inactive | – | inhibition (Salmonella typhimurium [18]): inactive; inhibition (Pseudomonas aeruginosa [19]): inactive; inhibition (Salmonella typhimurium [21]): inactive
17.3 | 8.6 | 349 | 365 | Nc1nc(-c2ccc(-c3ccccc3)cc2)c[nH]1 | Active | Active | – | – | – | – | – | – | – | – | inactive | inactive | inactive | inhibition (Pseudomonas aeruginosa [23]): Active; inhibition (Pseudomonas aeruginosa [24]): Active; inhibition (Salmonella typhimurium [25]): Active
17.6 | 34.5 | 396 | 94 | Nc1ncc(-c2ccc([N+](=O)[O-])cc2)[nH]1 | Active | Active | – | – | inactive | Active | – | Active | inactive | inactive | – | – | inactive | inhibition (Salmonella typhimurium [26]): inactive; inhibition (Pseudomonas aeruginosa [27]): inactive

Reference: ChEMBL document CHEMBL1649413, “Structure-activity relationship of 4(5)-aryl-2-amino-1H-imidazoles, N1-substituted 2-aminoimidazoles and imidazo[1,2-a]pyrimidinium salts as inhibitors of biofilm formation by Salmonella typhimurium and Pseudomonas aeruginosa” (J Med Chem, 2011)
